Consider 19 compounds from paper PMC9465256, “Discovering monoacylglycerol lipase inhibitors by a combination of fluorogenic substrate assay and activity-based protein profiling” (Frontiers in Pharmacology, 2022).

What all share (format): biochemical
One test deals with T1, human ABHD6 (Homo sapiens, UniProt Q9BV23).
T1 construct: expressed in transfected cells; host or cells: HEK293T (transient transfection; membrane fraction)
T1 sequence (Q9BV23 1-337): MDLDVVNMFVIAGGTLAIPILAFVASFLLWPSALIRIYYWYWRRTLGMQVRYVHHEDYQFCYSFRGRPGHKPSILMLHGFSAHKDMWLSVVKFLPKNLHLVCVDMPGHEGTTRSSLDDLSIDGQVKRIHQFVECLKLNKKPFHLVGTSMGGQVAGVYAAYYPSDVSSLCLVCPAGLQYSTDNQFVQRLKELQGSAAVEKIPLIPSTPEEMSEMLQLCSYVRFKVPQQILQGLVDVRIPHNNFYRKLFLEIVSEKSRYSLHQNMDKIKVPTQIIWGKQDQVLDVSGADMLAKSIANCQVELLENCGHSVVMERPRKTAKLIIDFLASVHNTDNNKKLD
Put plainly: ABHD6 activity assay (AA-HNA fluorogenic substrate). The settings on record: 100 µM, AA-HNA substrate assay, Supplementary Table 2; read-out: ABHD6 Inhibition (%). As for the experimental part: (§1) HEK293T cells were cultured at 37°C under 5% CO2 in a DMEM medium with stable glutamine and phenolred, containing 10% fetal bovine serum (FBS, Gibco), penicillin, and streptomycin. The cells were passaged every 2–3 days by resuspension in the medium at ∼90% confluence. The membranes used in this study were prepared from transiently transfected HEK293T cells. Briefly, 1 day prior to transfection, ∼10^7 cells were seeded in 15 cm plates, and then the cells were transfected by the addition of a mixture of polyethyleneimine and plasmid DNA (3:1, 60, and 20 µg) in 2 ml of medium (without serum). Of note, the empty pcDNA3.1 vector was used in the Mock-control. After 24 h, the medium was removed and the cells were refreshed with fresh medium. After 72 h, the cells were harvested by suspending in 20 ml of medium, and the supernatant was removed by centrifugation for 10 min at 1,000 rpm. The cell pellet was flash frozen in liquid nitrogen and stored at −80°C until use. Subsequently, the cell pellets were suspended in lysis buffer (30 mM Tirs, pH 7.5, 1 mM MgCl2, 25 U/ml Benzonase), which was homogenized by sonication (3 × 10 bursts) and incubated for 30 min on ice. The membrane fractions overexpressing MAGL/ABHD6/ABHD12 were separated by ultracentrifuge (100,000 g, 30 min, 4 C). The protein concentration was determined with a Qubit protein assay (Invitrogen). The protein samples were quickly frozen in liquid nitrogen and stored at −80 C until use.
The MAGL activity assay is based on the hydrolysis of 2-arachidonoylglycerol-based fluorogenic substrate by MAGL-overexpressing membrane preparations from transiently transfected HEK293T cells. In brief, the reactions were performed in HEPES buffer (40 mM HEPES, pH 7.5, 0.1 mg/ml BSA) in black, flat bottom 96-well plates. The final protein concentration of membrane fractions from overexpressing human MAGL HEK293T cells was 12.5 μg/ml 5 µl of inhibitors were added from×40 concentrated DMSO stocks in the 96-well plate containing 145 µl assay buffer, followed by the addition of 40 µl of the protein (12.5 μg/ml). After the incubation of the inhibitor-protein complex for 30 min, 10 µl of the fluorogenic substrate (AA-HNA, 200 µM) was added and fluorescence was measured in 1 min intervals for 30 min on a plate reader (BioTek). Final assay concentrations: 12.5 μg/ml MAGL, […], and […] in the total volume of 200 µl. All the measurements were performed in N = 2, n = 2 for inhibitors and N = 2, n = 4 for controls with Z′ value ≥0.6. The slope is determined in 5–15 min for all the experiments.
The ABHD6 activity assay is based on the same principle as the MAGL activity assay described earlier, but with human ABHD6 overexpressing membrane preparations at a final protein concentration of 50 μg/ml and 200 µM AA-HNA. Other conditions are the same as those of the MAGL activity assay.

In a further test the target is T2, human MAGL (Homo sapiens, UniProt Q99685).
T2 construct: expressed in transfected cells; host or cells: HEK293T (transient transfection; membrane fraction)
T2 sequence (Q99685 1-303): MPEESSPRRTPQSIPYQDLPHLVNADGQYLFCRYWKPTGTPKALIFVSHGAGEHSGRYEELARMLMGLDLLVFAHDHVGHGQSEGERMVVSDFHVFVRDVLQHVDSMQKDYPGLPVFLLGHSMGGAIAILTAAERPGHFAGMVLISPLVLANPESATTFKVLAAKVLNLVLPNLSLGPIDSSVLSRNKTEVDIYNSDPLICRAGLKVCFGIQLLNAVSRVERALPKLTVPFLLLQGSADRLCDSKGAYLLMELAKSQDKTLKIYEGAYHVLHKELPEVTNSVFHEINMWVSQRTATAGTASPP
Put plainly: MAGL activity assay (AA-HNA fluorogenic substrate). The settings on record: 100 µM, AA-HNA substrate assay, Supplementary Table 1; read-out: MAGL Inhibition (%). As for the experimental part: as §1
The MAGL activity assay is based on the hydrolysis of 2-arachidonoylglycerol-based fluorogenic substrate by MAGL-overexpressing membrane preparations from transiently transfected HEK293T cells. In brief, the reactions were performed in HEPES buffer (40 mM HEPES, pH 7.5, 0.1 mg/ml BSA) in black, flat bottom 96-well plates. […] After the incubation of the inhibitor-protein complex for 30 min, 10 µl of the fluorogenic substrate (AA-HNA, 200 µM) was added and fluorescence was measured in 1 min intervals for 30 min on a plate reader (BioTek). […] All the measurements were performed in N = 2, n = 2 for inhibitors and N = 2, n = 4 for controls with Z′ value ≥0.6. The slope is determined in 5–15 min for all the experiments.

For the next test, the target named is T3, human ABHD12 (Homo sapiens, UniProt Q8N2K0).
T3 construct: expressed in transfected cells; host or cells: HEK293T (transient transfection; membrane fraction)
T3 sequence (Q8N2K0 1-398): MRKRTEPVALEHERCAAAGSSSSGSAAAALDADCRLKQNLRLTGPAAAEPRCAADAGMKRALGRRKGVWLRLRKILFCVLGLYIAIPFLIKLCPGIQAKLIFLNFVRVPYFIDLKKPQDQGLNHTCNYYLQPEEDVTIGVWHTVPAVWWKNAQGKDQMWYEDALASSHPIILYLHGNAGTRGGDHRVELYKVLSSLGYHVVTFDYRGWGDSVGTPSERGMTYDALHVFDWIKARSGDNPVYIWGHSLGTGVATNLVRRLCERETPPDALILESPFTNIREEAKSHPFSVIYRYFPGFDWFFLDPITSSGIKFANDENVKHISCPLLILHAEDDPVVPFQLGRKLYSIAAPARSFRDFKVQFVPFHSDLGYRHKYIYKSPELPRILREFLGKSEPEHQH
Put plainly: ABHD12 activity by competitive ABPP with FP-TAMRA. The settings on record: 100 µM compound; competitive ABPP with probe FP-TAMRA (250 nM); read-out: ABHD12 Inhibition (%). As for the experimental part: as §1
The ABHD12 activity assay is based on competitive activity-based protein profiling (ABPP) with human ABHD12 overexpressing membrane fractions. Briefly, the membrane proteome (1 mg/ml, 20 µl) was incubated at room temperature with 0.5 µl DMSO (vehicle) or inhibitor for 30 min. Subsequently, the samples were treated with the activity-based probe FP-TAMRA (250 nM, final concentration) for 20 min. The reactions were then quenched by 10 µl sample buffer (×4) (final concentrations: 60 mM Tris, pH 6.8, 2% (w/v) SDS, 10% (v/v) glycerol, 5% (v/v) β-mercaptoethanol, 0.01% (v/v) bromophenol blue). The samples were directly loaded and resolved on SDS-PAGE gel (10% acrylamide), which were then scanned using a ChemiDoc MP system (Cy3 settings, BioRad).

For `C=CCc1ccc(O)c(-c2cc(CC=C)ccc2O)c1` [compound 48, Magnolol], the values for the activity at 100 µM at human ABHD6, on human MAGL and at human ABHD12 were 101%, 72.2% and 107%, respectively.
Regarding `O=C1CCC[C@@H]2[C@H]3CCCN4CCC[C@@H](CN12)[C@@H]34` [compound 49, (+)-Matrine], the activity on human ABHD6 stood at 98.3%; on human MAGL, 85.4%; at human ABHD12 it was 84.4%.
On the same counts, the results for `O=c1c(O)c(-c2ccc(O)cc2O)oc2cc(O)cc(O)c12` [compound 51, Morin hydrate] are 99.4%, 49.4% and 31.6%.
Turning to `O=c1c(O)c(-c2cc(O)c(O)c(O)c2)oc2cc(O)cc(O)c12` [compound 52, Myricetin], the activity at 100 µM on human ABHD6 came out at 100%; on human MAGL, 41.2%; on human ABHD12 it was 63.9%.
The like results for `CCn1cc(C(=O)O)c(=O)c2ccc(C)nc21` [compound 54, Nalidixic acid] were, in that order, 100%, 143% and 82.2%.
The like results for `C[C@@H]1O[C@@H](O[C@H]2[C@H](Oc3cc(O)c4c(c3)O[C@H](c3ccc(O)cc3)CC4=O)O[C@H](CO)[C@@H](O)[C@@H]2O)[C@H](O)[C@H](O)[C@H]1O` [compound 55, Naringin] were, in that order, 104%, 104% and 81.4%.
On the same counts, the results for `COc1ccc(CCC(=O)c2c(O)cc(O[C@@H]3O[C@H](CO)[C@@H](O)[C@H](O)[C@H]3O[C@@H]3O[C@@H](C)[C@H](O)[C@@H](O)[C@H]3O)cc2O)cc1O` [compound 56, Neohesperidin dihydrochalcone] are 105%, 87.4% and 83.1%.
For `COc1ccc([C@@H]2CC(=O)c3c(O)cc(O[C@@H]4O[C@H](CO)[C@@H](O)[C@H](O)[C@H]4O[C@@H]4O[C@@H](C)[C@H](O)[C@@H](O)[C@H]4O)cc3O2)cc1O` [compound 57, Neohesperidin], the activity on human ABHD6 amounted to 98.7%; on human MAGL, 86.8%; at human ABHD12, 75.6%.
As to `COc1ccc(-c2cc(=O)c3c(OC)c(OC)c(OC)c(OC)c3o2)cc1OC` [compound 58, Nobiletin], the activity at 100 µM at human ABHD6 stood at 100%; at human MAGL it was 83.4%; on human ABHD12 it was 75.6%.
On the same counts, the results for `CC1(C)CC[C@]2(C(=O)O)CC[C@]3(C)C(=CC[C@@H]4[C@@]5(C)CC[C@H](O)C(C)(C)[C@@H]5CC[C@]43C)[C@@H]2C1` [compound 59, Oleanolic Acid] are 98.5%, 130% and 57.7%.
On the same counts, the results for `C=C1C(=O)[C@]23[C@H](O)[C@H]1CC[C@H]2[C@@]12CO[C@]3(O)[C@@H](O)[C@@H]1C(C)(C)CC[C@@H]2O` [compound 60, Oridonin] are 102%, 59.6% and 74.6%.
On the same counts, the results for `O=C(O)c1cc(=O)[nH]c(=O)[nH]1` [compound 61, Orotic acid] are 113%, 101% and 97.2%.
For `COc1ccc2ccc(=O)oc2c1CC=C(C)C` [compound 62, Osthole], the activity at 100 µM on human ABHD6 stood at 112%; on human MAGL, 94.5%; on human ABHD12 it was 106%.
On to `O=C1CCC[C@@H]2[C@H]3CCC[N+]4([O-])CCC[C@@H](CN12)[C@@H]34` (stereo partly drawn) [compound 63, Oxymatrine], for which the activity at 100 µM at human ABHD6 was determined as 102%; on human MAGL, 99.9%; at human ABHD12, 91.3%.
For `C=C1C(=O)O[C@H]2[C@H]1CC/C(C)=C/CC[C@@]1(C)O[C@@H]21` [compound 65, (-)-Parthenolide], the values for the activity on human ABHD6, at human MAGL and at human ABHD12 were 105%, 87.5% and 92.4%, respectively.
As to `O=C(CCc1ccc(O)cc1)c1c(O)cc(O)cc1O[C@@H]1O[C@H](CO)[C@@H](O)[C@H](O)[C@H]1O` [compound 67, Phlorizin], the activity at 100 µM was determined as 116% on human ABHD6, 75.9% at human MAGL and 96.7% on human ABHD12.
As for `O=C(/C=C/C=C/c1ccc2c(c1)OCO2)N1CCCCC1` [compound 68, Piperine], the activity at 100 µM on human ABHD6 was 112%; at human MAGL it was 99.7%; at human ABHD12 it was 90.8%.
On the same counts, the results for `O=c1c(-c2ccc(O)cc2)coc2c([C@@H]3O[C@H](CO)[C@@H](O)[C@H](O)[C@H]3O)c(O)ccc12` [compound 69, Puerarin] are 119%, 94.8% and 104%.
The like results for `O=c1c2ccccc2nc2n1CCc1c-2[nH]c2ccccc12` [compound 71, Rutaecarpine] were, in that order, 111%, 99.2% and 97%.
